From patent US12377069B2, “Compounds, compositions, methods of using, and methods for preparing compounds” (UNIVERSITY OF LOUISVILLE RESEARCH FOUNDATION, INC., priority 2018, dated 2025)

Legend:
[1] = tested on: mouse bone marrow derived macrophages (BMDMs); assay: LPS-induced IL-6 and TNF-α in BMDM; format: cell-based; conditions: for LPS-induced IL-6 production in AhR^−/− macrophages: AhR^−/− BMDM, up to 30 NM; for LPS induced IL-6 and TNF-α: 0.1-50 μM; for IL-6 in Nrf2^−/− (fold reduction; TNBS model and LPS-induced BMDM): Nrf2^−/− vs WT
Method: Measurements of IL-6 and TNF-α in BMDM: BMDM were plated in 96 (10,000 cells/well) and 12 wells (0.1×10^6 cells/well) plate for ELISA and RNA isolation. To evaluate the anti-inflammatory properties, BMDMs were stimulated with E. coli-derived lipopolysaccharides (LPS; 055:B5; Sigma) at 50 ng/mL concentration for six hours alone or in combination with UroA or UAS03 at indicated concentrations (0.01, 0.1, 1, 10, 25, 50 μM) in quadruplicates. For cytokine production via ELISA, the supernatant was collected and centrifuged at 10,000×g for 10 min at 4° C. to pellet down any cell and cytokines were quantified using IL-6 and TNF-α specific ELISA kit (Biolegend) following manufacturer's instruction.
Screening for anti-inflammatory activities: Mouse bone marrow derived macrophages (BMDM) were plated in 96 wells plate for ELISA. To evaluate the anti-inflammatory properties, BMDMs were stimulated with E. coli-derived lipopolysaccharides (LPS; 055:B5; Sigma) at 50 ng/mL concentration for six hours alone or in combination with compounds at indicated concentrations in quadruplicates. For cytokine production via ELISA, the supernatant was collected and centrifuged at 12,000 rpm for 10 min at 4° C. to pellet down any cell and cytokines were quantified using IL-6 and TNF-α specific ELISA kit (Biolegend) following manufacturer's instruction. LPS induced IL-6 or TNF-α considered as 100%.

colon explants = assay: Colon explant culture; parameters: species or system mouse; conditions: 50 μM, 24 h
Method: Colon explant culture: Colon tissue pieces (0.5-1 cm length) from wild type (C57BL/6) or Nrf2^−/− or AhR^−/− mice were cultured in triplicates for 24 h in complete DMEM-high glucose medium (supplemented with 10% fetal bovine serum, 1× penicillin-streptomycin solution) in a humidified atmosphere in the presence of vehicle (0.01% DMSO), UroA (50 μM) or UAS03 (50 μM). The tissues were processed for protein preparation (tissue lysates with RIPA plus buffer) or total RNA isolation. These tissue lysates or RNA were used to determine the expression of Nrf2, Cldn4 and AhR.

Caco2 cells = assay: LPS depletion of Ocln in colon epithelial cells; format: cell-based, human; conditions: 10, 25, 50 μM, 24 h
Method: FIG. 12: UroA/UAS03 protect from LPS or alcohol induced depletion of Ocln and protected permeability. (A) Caco 2 cells were treated with LPS for 24 h at indicated doses and Western blots performed to determine expression of Ocln. (B) Caco2 cells were treated with LPS in combination with UroA or UAS03 (10, 25, 50 μM) for 24 h and determined Ocln expression.
UroA/UAS03 upregulate TJ proteins and protect against LPS induced damage: TJ proteins such as Cldn4, ZO-1, Ocln play a role in maintaining the gut epithelial integrity and protect the gut from external insults such as LPS. We investigated UroA/UAS03 effects on TJ protein regulation in colon epithelial cells, HT-29 and Caco2 cells. […] ALD is associated with disrupted TJs, increased permeability, inflammation and endotoxemia. Ocln is a tight junction protein expressed in intestinal epithelium and plays a role in maintenance of gut barrier function. We examined whether UroA/UAS03 can protect LPS (endotoxin) depletion of Ocln in colon epithelial cells. […] For this purpose, we have utilized Caco-2 monolayer cells on transwell membranes and performed transepithelial electrical resistance (TEER) and FITC-dextran permeability assays.

MRP2 = MRP2 expression in 5FU-R colon cancer cells; format: cell-based; conditions: SW-5FUR colon cancer cell lines
Method: FIG. 43: UroA/UAS03 down regulate drug transporters. (A) Expression of MRP2 is measured by real time PCR upon treating with indicated doses of UroA or UAS03 in SW-5FUR colon cancer cell lines. (B) MRP2 activity is measured using CDCFDA (diacetate ester of 5(6)-carboxy-2′,7′-dichlorofluorescein) transporter assay in SW-FUR colon cancer cell lines upon treating with UroA/USA03.
This could result in increase in intracellular drug concentration leading to increase in cell death/decreased proliferation of drug resistant cancer cells upon treatment with 5FU and UroA/UAS03.

[2] = tested on: colon cancer cell line (SW480); assay: Proliferation assay with 5FU; conditions: for effect on cell proliferation, compound alone: without 5FU

Q: How did the “LPS-induced IL-6 production in AhR^−/− macrophages” value [1] turn out when `Oc1ccc2c(c1)COc1cc(O)ccc1-2` [UAS03, 6H-benzo[c]chromene-3,8-diol] was run?
A: Its value is “did not block”.

Q: What about the “anti-inflammatory activities (LPS-induced IL-6 and TNF-α), analogue screening” value ([1]; LPS 50 ng/mL, six hours, compared UroA) of the same molecule?
A: The value was “effective anti-inflammatory compounds”.

Q: And the “concentrations showing anti-inflammatory activities” value ([1]; LPS 50 ng/ml, 6 h)?
A: Its value is “nano molar concentrations”.

Q: And the “LPS induced IL-6 and TNF-α” value ([1]; LPS 50 ng/ml, 6 h)?
A: Its value is “decreased”.

Q: What about the “IL-6 in Nrf2^−/− (fold reduction; TNBS model and LPS-induced BMDM)” value [1] of the same molecule?
A: The value was “reduced IL-6 in Nrf2^−/− similar to WT”.

Q: And the “Cldn4 and NQO1 in Nrf2^−/− and AhR^−/− colon explants” value (colon explants)?
A: Its value is “did not appear to induce”.

Q: What about the “expression of Nrf2, NQO1 and Cldn4 in WT colon explants” value (colon explants) of the same molecule?
A: Its value is “induced the expression”.

Q: And the “LPS depletion of Ocln” value (Caco2 cells)?
A: The value was “protected from depletion of Ocln”.

Q: And the “expression of drug transporters (MRP2)” value (MRP2)?
A: The value was “reduce the expression”.

Q: What about the “fold less 5FU drug concentration to reach the similar effect” value ([2]; combination with 5FU) of the same molecule?
A: The value was “more than 32 fold”.

Q: What about the “increase in the inhibition of cell proliferation” value ([2]; with 3.12 μM of 5FU) of the same molecule?
A: The value was “approximately 6 fold”.

Q: And the “cell viability in combination with 5FU” value ([2]; with 5FU)?
A: Its value is 40%.

Q: What about the “effect on cell proliferation, compound alone” value [2] of the same molecule?
A: The value was “minimal effect”.

Q: What does the source list for `O=c1oc2cc(O)ccc2c2ccc(O)cc12` [UroA, 3,8-dihydroxy-6H-dibenzo[b,d]pyran-6-one]?
A: LPS-induced IL-6 production in AhR^−/− macrophages [1]: did not block; LPS induced IL-6 and TNF-α ([1]; LPS 50 ng/ml, 6 h): decreased; IL-6 in Nrf2^−/− (fold reduction; TNBS model and LPS-induced BMDM) [1]: reduced IL-6 in Nrf2^−/− similar to WT; Cldn4 and NQO1 in Nrf2^−/− and AhR^−/− colon explants (colon explants): did not appear to induce; expression of Nrf2, NQO1 and Cldn4 in WT colon explants (colon explants): induced the expression; LPS depletion of Ocln (Caco2 cells): protected from depletion of Ocln; expression of drug transporters (MRP2) (MRP2): reduce the expression; effect on cell proliferation, compound alone [2]: minimal effect
